Source: patent US8334298B2, “Treatment or prevention of ovarian hyperstimulation syndrome (OHSS) using a dopamine agonist” (Ferring International Center S.A., priority 2005, dated 2012)
Values joined by “and” are separate entries in the source; they are usually repeats but may differ in a detail not shown here. Identical values can stand only once.

Columns and labels:
OHSS rats [1] = experiment: Dose response of quinagolide on vascular permeability in OHSS rats, reassessment (Example 5); type: in vivo, Wistar rats; conditions: single rat
Protocol: (§1) Inducing OHSS manifestations. A total of 96 female immature Wistar rats (Harlan Iberica, Sant Feliu de Codina, Barcelona, SPAIN), weighing from 42-48 grams at the beginning of these experiments (day 22), were used to carry out the studies disclosed in Examples 4 and 5. They were injected subcutaneously (s.c) with 10 IU of Pregnant Mare's Serum Gonadotropin (PMSG) (Sigma) for 4 consecutive days (days 22-25), followed by administered intraperitoneally (i.p.) with 30 IU of hCG on the fifth day (day 26) in order to induce OHSS clinical manifestations.
(§2) Measuring vascular permeability (VP). VP was used as an index to estimate and compare the degree of development of the illness. VP was measured in all animals 48-56 hours after hCG administration, following methodology previously described (Gomez et al., supra). Briefly, 0.2 ml Evans Blue dye, 0.05 M, was injected through the femoral vein. After 30 minutes, the peritoneal cavity was irrigated with 5 ml saline, pH 6, 22° C., and massaged for 30 seconds to recover extravasated dye. The peritoneal fluid was recovered in 13 ml tubes containing 0.1 ml NaOH. The tubes were centrifuged at 900×g for 12 minutes to avoid protein interference. The supernatant was filtered through 0.22 um filters in order to eliminate ascitic protein/fibrin mucus which could interfere in the posterior measurements. Finally the absorbance of the extravasated dye was measured at 595 nm using a spectrophotometer. Average and average deviations in each group (see below) were calculated. VP was expressed as μg extravasated Evans Blue dye/100 g body weight in each animal.
For Example 5, three quinagolide doses were tested: 5, […] 250 μg/kg/day. The 250 μg/kg/day dose was tested in order to determine if the maximal potential inhibitory effect of quinagolide had been reached in Example 4.
A total of 26 rats were used for this study. All 26 rats were administered PMSG/hCG to induce OHSS symptoms, as described above. Quinagolide was administered to 18 rats, divided into three groups of six rats per group. The 18 rats that received quinagolide were used as a dose response test group. […] A positive control group was not employed for this Example. The specific details of the dosing regimen for each group is as follows:
Vehicle control group (quinagolide 0 μg/kg) (n=8). Eight rats were implanted with prolactin placebo pellets, 5 days release, between 10:00 to 11:00 on day 26, just following hCG injection (see General Procedures, above). Six hours after prolactin placebo pellet implantation, the rats in this group were orally administered vehicle solution (1:6 alcohol:water mixture) (without quinagolide). They received another oral administration of vehicle solution 24 hours later. Experimental groups (quinagolide at 5, 62.5, 250 μg/kg/day to 3 test groups of rats) (n=6 in each test group). These rats were implanted with prolactin pellets, 5 days release, between 10:00 to 11:00 am on day 26, just following hCG injection (see General Procedures, above). […] In this manner, the desired 5, 62.5, and 250 μg/kg doses to be assayed were achieved. Twenty four hours later, the rats in this group were administered with another dose of the same amounts of quinagolide. Reconstitution and dilution process to reach appropriate quinagolide doses for oral administration. A commercial drug, Norprolac®, was used as the source of quinagolide for this Example. Four Norprolac® pills, containing 150 μg quinagolide each (600 μg quinagolide total) were diluted in 6250 μl of distilled water. A volume of 1250 μl of alcohol was added to reach a vehicle solution (1:6 alcohol:water mixture) containing 80 μg quinagolide per ml solution. A 1.5 ml aliquot was serially diluted (1:4, 1:12.5) in the same vehicle solution. A 250 μl oral administration of each quinagolide solution was given to the appropriate rat in each group on the same day hCG was administered (day 26), as described. […]

OHSS rats [2] = experiment: Dose response of quinagolide on vascular permeability in OHSS rats (Example 4); type: in vivo, Wistar rats; conditions: single rat, 48-56 h after hCG
Protocol: as §1, §2
A total of 70 rats were used for this study. All 70 rats were administered PMSG/hCG to induce OHSS symptoms, as described above. Quinagolide (batch no. 1010003004; supplied by Ferring Labs) was administered to 56 rats. The 56 rats that received quinagolide were used as a dose response test group. […] Cabergoline (Dostinex®) was administered to 6 rats as a positive control. The specific details of the dosing regimen for each group is as follows:
Vehicle control group (quinagolide 0 μg/kg) (n=8). Eight rats were implanted with prolactin placebo pellets, 5 days release, between 10:00 to 11:00 on day 26, just following hCG injection (see General Procedures, above). Six hours after pellet implantation, the rats in this group were orally administered vehicle solution (1:6 alcohol in water mixture) (without quinagolide). They received another oral vehicle administration of vehicle solution 24 hours later. Experimental groups (quinagolide at 0.1, 0.3, 1, 3, 10, 25, 50 μg/kg/day to 7 test groups of rats) (n=8 in each test group). The rats in these groups were implanted with prolactin pellets, 5 days release, between 10:00 to 11:00 on day 26, just following hCG injection (see General Procedures, above). […] In this manner, the desired 0.1, 0.3, 1, 3, 10, 25, 50 μg/kg doses to be assayed were achieved. Twenty four hours later, the rats in this group were administered with another dose of the same amounts of quinagolide. Positive (cabergoline) control group (n=6). These six rats were implanted with prolactin pellets, 5 days release, between 10:00 to 11:00 .m on day 26, just following hCG injection. […] Twenty four hours later, the rats in this group were administered with another dose of the same amount of cabergoline. […] Reconstitution and dilution process to reach appropriate quinagolide doses for oral administration. Appropriate doses were prepared fresh just prior to being administered (on day 26). A single quinagolide vial, containing approximately 2.30-2.30 mg quinagolide, was employed for each single set of animals. For each solution, approximately 2.30-2.30 mg quinagolide was diluted in a vehicle solution (1:6 alcohol:water mixture) to achieve a stock concentration of 100 μg quinagolide per ml solution. […]

[3] = quinagolide 5 μg/kg/day oral (Norprolac pills)
[4] = quinagolide 250 μg/kg/day oral (Norprolac pills)
[5] = quinagolide 62. μg/kg/day oral (Norprolac pills)

For CCCN1CC(NS(=O)(=O)N(CC)CC)CC2Cc3c(O)cccc3CC21 (stereo not drawn) [Quinagolide, quinagolide], the “Absorbance at 595 nm” value (OHSS rats [1]; [3]) was 0.622 and 0.924 and 0.491 and 0.181 and 0.242 and 0.335, the “μg EB per 100 g body weight” value (OHSS rats [1]; [3]) was 38.74 μg EB per 100 g body weight and 55.57 μg EB per 100 g body weight and 28.74 μg EB per 100 g body weight and 10.96 μg EB per 100 g body weight and 14.76 μg EB per 100 g body weight and 22.13 μg EB per 100 g body weight and the “μg Evans Blue (Abs * 4360)” value (OHSS rats [1]; [3]) was 2711.92 µg and 4028.64 µg and 2140.76 µg and 789.16 µg and 1055.12 µg and 1460.6 µg. For the same compound, the “Absorbance at 595 nm” value (OHSS rats [1]; [4]) was 0.03 and 0.036 and 0.1709 and 0.021 and 0.103 and 0.056, the “μg EB per 100 g body weight” value (OHSS rats [1]; [4]) was 1.721 μg EB per 100 g body weight and 2.854 μg EB per 100 g body weight and 10.88 μg EB per 100 g body weight and 1.356 μg EB per 100 g body weight and 6.703 μg EB per 100 g body weight and 3.513 μg EB per 100 g body weight and the “μg Evans Blue (Abs * 4360)” value (OHSS rats [1]; [4]) was 130.8 µg and 156.96 µg and 745.124 µg and 91.56 µg and 449.08 µg and 244.16 µg. For the same compound, the “Absorbance at 595 nm” value (OHSS rats [1]; [5]) was 0.115 and 0.125 and 0.256 and 0.209 and 0.299 and 0.201, the “μg EB per 100 g body weight” value (OHSS rats [1]; [5]) was 7.214 μg EB per 100 g body weight and 7.517 μg EB per 100 g body weight and 16.06 μg EB per 100 g body weight and 13.3 μg EB per 100 g body weight and 19.03 μg EB per 100 g body weight and 12.26 μg EB per 100 g body weight and the “μg Evans Blue (Abs * 4360)” value (OHSS rats [1]; [5]) was 501.4 µg and 545 µg and 1116.16 µg and 911.24 µg and 1303.64 µg and 876.36 µg. The “Absorbance at 595 nm” value (OHSS rats [2]; quinagolide 0.1 μg/kg/day oral) was 0.081 and 0.646 and 0.338 and 0.35, the “μg EB per 100 g body weight” value (OHSS rats [2]; quinagolide 0.1 μg/kg/day oral) was 4.871 μg EB per 100 g body weight and 37.81 μg EB per 100 g body weight and 21.05 μg EB per 100 g body weight and 21.19 μg EB per 100 g body weight and the “μg Evans Blue (Abs * 4360)” value (OHSS rats [2]; quinagolide 0.1 μg/kg/day oral) was 353.16 µg and 2816.56 µg and 1473.68 µg and 1526 µg. The “Absorbance at 595 nm” value (OHSS rats [2]; quinagolide 0.3 μg/kg/day oral) was 0.28 and 0.547 and 0.768 and 0.342 and 0.444, the “μg EB per 100 g body weight” value (OHSS rats [2]; quinagolide 0.3 μg/kg/day oral) was 16.96 μg EB per 100 g body weight and 36.69 μg EB per 100 g body weight and 47.84 μg EB per 100 g body weight and 20.57 μg EB per 100 g body weight and 25.8112 μg EB per 100 g body weight and the “μg Evans Blue (Abs * 4360)” value (OHSS rats [2]; quinagolide 0.3 μg/kg/day oral) was 1220.8 µg and 2384.92 µg and 3348.48 µg and 1491.12 µg and 1935.84 µg. For the same compound, the “Absorbance at 595 nm” value (OHSS rats [2]; quinagolide 1 μg/kg/day oral) was 0.396 and 0.341 and 0.389 and 0.424 and 0.256 and 0.205, the “μg EB per 100 g body weight” value (OHSS rats [2]; quinagolide 1 μg/kg/day oral) was 27.85 μg EB per 100 g body weight and 22.53 μg EB per 100 g body weight and 22.32 μg EB per 100 g body weight and 26.41 μg EB per 100 g body weight and 14.31 μg EB per 100 g body weight and 12.33 μg EB per 100 g body weight and the “μg Evans Blue (Abs * 4360)” value (OHSS rats [2]; quinagolide 1 μg/kg/day oral) was 1726.56 µg and 1486.76 µg and 1696.04 µg and 1848.64 µg and 1116.16 µg and 893.8 µg. For the same compound, the “Absorbance at 595 nm” value (OHSS rats [2]; quinagolide 3 μg/kg/day oral) was 0.09 and 0.394 and 0.181 and 0.584 and 0.369 and 0.581, the “μg EB per 100 g body weight” value (OHSS rats [2]; quinagolide 3 μg/kg/day oral) was 5.945 μg EB per 100 g body weight and 26.84 μg EB per 100 g body weight and 9.927 μg EB per 100 g body weight and 37.17 μg EB per 100 g body weight and 23.32 μg EB per 100 g body weight and 31.08 μg EB per 100 g body weight and the “μg Evans Blue (Abs * 4360)” value (OHSS rats [2]; quinagolide 3 μg/kg/day oral) was 392.4 µg and 1717.84 µg and 789.16 µg and 2546.24 µg and 1608.84 µg and 2533.16 µg. For the same compound, the “Absorbance at 595 nm” value (OHSS rats [2]; quinagolide 10 μg/kg/day oral) was 0.418 and 0.145 and 0.188 and 0.328 and 0.626, the “μg EB per 100 g body weight” value (OHSS rats [2]; quinagolide 10 μg/kg/day oral) was 24.63 μg EB per 100 g body weight and 8.543 μg EB per 100 g body weight and 12.42 μg EB per 100 g body weight and 19.73 μg EB per 100 g body weight and 37.39 μg EB per 100 g body weight and the “μg Evans Blue (Abs * 4360)” value (OHSS rats [2]; quinagolide 10 μg/kg/day oral) was 1822.48 µg and 632.2 µg and 819.68 µg and 1430.08 µg and 2729.36 µg. For the same compound, the “Absorbance at 595 nm” value (OHSS rats [2]; quinagolide 25 μg/kg/day oral) was 0.299 and 0.311 and 0.042 and 0.669 and 0.08, the “μg EB per 100 g body weight” value (OHSS rats [2]; quinagolide 25 μg/kg/day oral) was 19.17 μg EB per 100 g body weight and 19.23 μg EB per 100 g body weight and 2.654 μg EB per 100 g body weight and 40.51 μg EB per 100 g body weight and 4.501 μg EB per 100 g body weight and the “μg Evans Blue (Abs * 4360)” value (OHSS rats [2]; quinagolide 25 μg/kg/day oral) was 1303.64 µg and 1355.96 µg and 183.12 µg and 2916.84 µg and 348.8 µg. The “Absorbance at 595 nm” value (OHSS rats [2]; quinagolide 50 μg/kg/day oral) was 0.179 and 0.048 and 0.151 and 0.358 and 0.09 and 0.215, the “μg EB per 100 g body weight” value (OHSS rats [2]; quinagolide 50 μg/kg/day oral) was 10.84 μg EB per 100 g body weight and 2.847 μg EB per 100 g body weight and 9.144 μg EB per 100 g body weight and 22.95 μg EB per 100 g body weight and 5.267 μg EB per 100 g body weight and 12.5 μg EB per 100 g body weight and the “μg Evans Blue (Abs * 4360)” value (OHSS rats [2]; quinagolide 50 μg/kg/day oral) was 780.44 µg and 209.28 µg and 658.36 µg and 1560.88 µg and 392.4 µg and 937.4 µg.
